In ChEMBL document CHEMBL1159270, “Bruceosides D, E, and F, three new cytotoxic quassinoid glucosides from Brucea javanica” (1995):

How the values were obtained:
Assay type in all cases: functional
[1] = system: RXF 393; test: Growth inhibition of human RXF393 cells
[2] = system: A549; test: Growth inhibition of human A549 cells
[3] = system: SF-268; test: Growth inhibition of human SF268 cells
[4] = system: OVCAR-8; test: Growth inhibition of human OVCAR8 cells
[5] = system: SK-MEL-5; test: Growth inhibition of human SK-MEL-5 cells
[6] = system: M14; test: Growth inhibition of human M14 cells
[7] = system: PC-3; test: Growth inhibition of human PC3 cells
[8] = system: IGROV-1; test: Growth inhibition of human IGROV1 cells
[9] = system: MOLT-4; test: Growth inhibition of human MOLT4 cells
[10] = system: SNB-75; test: Growth inhibition of human SNB75 cells
[11] = system: ACHN; test: Growth inhibition of human ACHN cells
[12] = system: A498; test: Growth inhibition of human A498 cells
[13] = system: UACC-257; test: Growth inhibition of human UACC257 cells
[14] = system: NCI-H322M; test: Growth inhibition of human NCI-H322M cells
[15] = system: HT-29; test: Growth inhibition of human HT-29 cells
[16] = system: SW-620; test: Growth inhibition of human SW620 cells
[17] = system: U-251; test: Growth inhibition of human U251 cells
[18] = system: HOP-62; test: Growth inhibition of human HOP62 cells
[19] = system: Malme-3M; test: Growth inhibition of human MALME-3M cells
[20] = system: NCI-H522; test: Growth inhibition of human NCI-H522 cells
[21] = system: UACC-62; test: Growth inhibition of human UACC62 cells
[22] = system: HL-60(TB); test: Growth inhibition of human HL-60(TB) cells
[23] = system: BT-549; test: Growth inhibition of human BT549 cells
[24] = system: KM12; test: Growth inhibition of human KM12 cells
[25] = system: MDA-N; test: Growth inhibition of human MDA-N cells
[26] = system: SK-MEL-28; test: Growth inhibition of human SK-MEL-28 cells
[27] = system: DU-145; test: Growth inhibition of human DU145 cells
[28] = system: SK-MEL-2; test: Growth inhibition of human SK-MEL-2 cells
[29] = system: HOP-92; test: Growth inhibition of human HOP92 cells
[30] = system: TK-10; test: Growth inhibition of human TK10 cells
[31] = system: K562; test: Growth inhibition of human K562 cells
[32] = system: SNB-19; test: Growth inhibition of human SNB19 cells
[33] = system: EKVX; test: Growth inhibition of human EKVX cells
[34] = system: LOX IMVI; test: Growth inhibition of human LOXIMVI cells
[35] = system: T47D; test: Growth inhibition of human T47D cells
[36] = system: OVCAR-3; test: Growth inhibition of human OVCAR-3 cells
[37] = system: CCRF-CEM; test: Growth inhibition of human CCRF-CEM cells
[38] = system: SN12C; test: Growth inhibition of human SN12C cells
[39] = system: NCI-H460; test: Growth inhibition of human NCI-H460 cells
[40] = system: CAKI-1; test: Growth inhibition of human Caki1 cells
[41] = system: 786-0; test: Growth inhibition of human 786-0 cells
[42] = system: NCI-H226; test: Growth inhibition of human NCI-H226 cells
[43] = system: SK-OV-3; test: Growth inhibition of human SKOV3 cells
[44] = system: MCF7; test: Growth inhibition of human MCF7 cells
[45] = system: COLO 205; test: Growth inhibition of human COLO205 cells
[46] = Growth inhibition of human MCF7/ADR cells; details: NCI/ADR-RES
[47] = system: HCC 2998; test: Growth inhibition of human HCC2998 cells
[48] = system: OVCAR-4; test: Growth inhibition of human OVCAR4 cells
[49] = Growth inhibition of human Hs 578T cells
[50] = system: HCT-116; test: Growth inhibition of human HCT116 cells
[51] = system: MDA-MB-435; test: Growth inhibition of human MDA-MB-435 cells
[52] = system: SR; test: Growth inhibition of human SR cells
[53] = system: HCT-15; test: Growth inhibition of human HCT15 cells
[54] = system: OVCAR-5; test: Growth inhibition of human OVCAR5 cells
[55] = system: SF-539; test: Growth inhibition of human SF539 cells
[56] = system: MDA-MB-231; test: Growth inhibition of human MDA-MB-231 cells
[57] = system: UO-31; test: Growth inhibition of human UO31 cells
[58] = system: NCI-H23; test: Growth inhibition of human NCI-H23 cells

With `CC(C)CC(=O)O[C@H]1C(=O)O[C@@H]2C[C@H]3[C@H](C)C(=O)C(O[C@@H]4O[C@H](CO)[C@@H](O)[C@H](O)[C@H]4O)=C[C@]3(C)[C@H]3[C@@H](O)[C@H](O)[C@]4(C(=O)O)OC[C@]32[C@@H]14` [BRUCEOSIDE E] the GI50 [1] was 10.7 µM, the GI50 [2] was 41.7 µM and the GI50 [3] was > 100 µM. The GI50 [4] was > 100 µM, the GI50 [5] was 28.2 µM and the GI50 [6] was > 100 µM. For the same compound, the GI50 [7] was > 100 µM, the GI50 [8] was 35.5 µM and the GI50 [9] was 19.1 µM. The GI50 [10] was > 100 µM, the GI50 [11] was > 100 µM and the GI50 [12] was > 100 µM. For the same compound, the GI50 [13] was > 100 µM, the GI50 [14] was > 100 µM and the GI50 [15] was 33.9 µM. For the same compound, the GI50 [16] was > 100 µM, the GI50 [17] was 31.6 µM and the GI50 [18] was 44.7 µM. For the same compound, the GI50 [19] was 22.9 µM, the GI50 [20] was 2.19 µM and the GI50 [21] was > 100 µM. For the same compound, the GI50 [22] was 41.7 µM, the GI50 [23] was > 100 µM and the GI50 [24] was > 100 µM. For the same compound, the GI50 [25] was > 100 µM, the GI50 [26] was 25.1 µM and the GI50 [27] was > 100 µM. For the same compound, the GI50 [28] was > 100 µM, the GI50 [29] was 37.2 µM and the GI50 [30] was > 100 µM. For the same compound, the GI50 [31] was 24 µM, the GI50 [32] was 31.6 µM and the GI50 [33] was > 100 µM. For the same compound, the GI50 [34] was 38.9 µM, the GI50 [35] was > 100 µM and the GI50 [36] was 36.3 µM. For the same compound, the GI50 [37] was 24.5 µM, the GI50 [38] was > 100 µM and the GI50 [39] was 27.5 µM. For the same compound, the GI50 [40] was > 100 µM, the GI50 [41] was > 100 µM and the GI50 [42] was 29.5 µM. The GI50 [43] was > 100 µM, the GI50 [44] was 28.2 µM and the GI50 [45] was > 100 µM. For the same compound, the GI50 [46] was > 100 µM, the GI50 [47] was 20.4 µM and the GI50 [48] was 1.91 µM. The GI50 [49] was 39.8 µM, the GI50 [50] was 33.1 µM and the GI50 [51] was > 100 µM. The GI50 [52] was 33.9 µM, the GI50 [53] was > 100 µM and the GI50 [54] was > 100 µM. For the same compound, the GI50 [55] was 20.4 µM, the GI50 [56] was > 100 µM and the GI50 [57] was > 100 µM. For the same compound, the GI50 [58] was > 100 µM.
For `CC(C)=CC(=O)O[C@H]1C(=O)O[C@@H]2C[C@H]3[C@H](C)C(=O)C(O[C@@H]4O[C@H](CO)[C@@H](O)[C@H](O)[C@H]4O)=C[C@]3(C)[C@H]3[C@@H](O)[C@H](O)[C@]4(C(=O)O)OC[C@]32[C@@H]14` [BRUCEOSIDE D], the GI50 [1] was 25.1 µM, the GI50 [2] was 55 µM and the GI50 [3] was > 100 µM. For the same compound, the GI50 [4] was > 100 µM, the GI50 [5] was 42.7 µM and the GI50 [6] was 32.4 µM. The GI50 [7] was > 100 µM, the GI50 [8] was > 100 µM and the GI50 [9] was 22.4 µM. The GI50 [10] was > 100 µM, the GI50 [11] was > 100 µM and the GI50 [12] was > 100 µM. For the same compound, the GI50 [13] was > 100 µM, the GI50 [14] was > 100 µM and the GI50 [15] was 35.5 µM. The GI50 [16] was > 100 µM, the GI50 [17] was 39.8 µM and the GI50 [18] was 33.1 µM. For the same compound, the GI50 [19] was 24 µM, the GI50 [20] was 28.8 µM and the GI50 [21] was > 100 µM. The GI50 [22] was 35.5 µM, the GI50 [23] was > 100 µM and the GI50 [24] was 49 µM. For the same compound, the GI50 [25] was > 100 µM, the GI50 [26] was 37.2 µM and the GI50 [27] was > 100 µM. For the same compound, the GI50 [28] was > 100 µM, the GI50 [29] was 31.6 µM and the GI50 [30] was > 100 µM. For the same compound, the GI50 [31] was 25.7 µM, the GI50 [32] was 31.6 µM and the GI50 [33] was > 100 µM. The GI50 [34] was 40.7 µM, the GI50 [35] was > 100 µM and the GI50 [36] was 20.4 µM. For the same compound, the GI50 [37] was 36.3 µM, the GI50 [38] was > 100 µM and the GI50 [39] was 32.4 µM. For the same compound, the GI50 [40] was > 100 µM, the GI50 [41] was > 100 µM and the GI50 [42] was 28.2 µM. The GI50 [43] was > 100 µM, the GI50 [44] was 22.4 µM and the GI50 [45] was > 100 µM. For the same compound, the GI50 [46] was > 100 µM, the GI50 [47] was 24.5 µM and the GI50 [48] was 25.1 µM. For the same compound, the GI50 [49] was > 100 µM, the GI50 [50] was 29.5 µM and the GI50 [51] was > 100 µM. For the same compound, the GI50 [52] was 30.9 µM, the GI50 [53] was > 100 µM and the GI50 [54] was > 100 µM. The GI50 [55] was 26.3 µM, the GI50 [56] was > 100 µM and the GI50 [57] was 31.6 µM. For the same compound, the GI50 [58] was > 100 µM.
